Common to all, as to assay type: biochemical
Experiment [1] has as its target CDK4/cyclin D1 (Homo sapiens (Human), UniProt P11802). The experiment in a line: CDK4/Cyclin D1 enzymatic activity assay (Lance TR-FRET). The procedure, abridged:
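IC50 from a TR-FRET endpoint read of phospho-pRb(S780) after EDTA quench. Reaction: 60 min, room temperature, 3 μM ATP, 175 nM pRb152 substrate, 0.3 nM Sf21-derived His6-CDK4/GST-cyclin D1, pH 7.5 HEPES with MgCl2/MnCl2, 2% DMSO, inhibitor 0.005-10 μM.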

Experiment [2] deals with CDK1/cyclin B (Homo sapiens (Human), UniProt P06493). The experiment is described as follows: CDK1/Cyclin B enzymatic activity assay (IMAP-FP). From the text:
A 384-well microtiter IMAP-FPT™ (Molecular Devices Trade Mark Technology) endpoint assay was used for CDK1/cyclin B kinase activity measurements. The same assay was used for IC50 determination of small molecule inhibitors.

The target of experiment [3] is CDK2/cyclin A (Homo sapiens (Human), UniProt P24941). The experiment in a line: CDK2/Cyclin A enzymatic activity assay (IMAP-FP).
Where [4] appears, read: Table 2, 3 μM ATP, read-out: CDK4.
The mark [5] stands for this setting: Table 2, 20 μM ATP, read-out: CDK1.

This note sets out measurements from US8962630B2, “Pyrrolopyrimidine compounds and their uses” (Novartis AG, priority 2008, dated 2015).

Each structure is given as a SMILES string. Read-outs that look alike come from different tables or passages of the source.

Chain of CDK1/cyclin B (P06493 whole entry, species assumed): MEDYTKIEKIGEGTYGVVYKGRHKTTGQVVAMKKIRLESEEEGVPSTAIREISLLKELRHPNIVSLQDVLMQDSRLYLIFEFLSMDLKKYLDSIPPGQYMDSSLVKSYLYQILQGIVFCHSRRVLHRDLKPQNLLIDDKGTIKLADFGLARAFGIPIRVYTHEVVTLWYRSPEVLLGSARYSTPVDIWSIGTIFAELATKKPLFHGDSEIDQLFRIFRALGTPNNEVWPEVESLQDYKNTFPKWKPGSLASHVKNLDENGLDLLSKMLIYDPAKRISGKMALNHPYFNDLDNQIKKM
Chain of CDK1/cyclin B (P14635 whole entry partner, species assumed): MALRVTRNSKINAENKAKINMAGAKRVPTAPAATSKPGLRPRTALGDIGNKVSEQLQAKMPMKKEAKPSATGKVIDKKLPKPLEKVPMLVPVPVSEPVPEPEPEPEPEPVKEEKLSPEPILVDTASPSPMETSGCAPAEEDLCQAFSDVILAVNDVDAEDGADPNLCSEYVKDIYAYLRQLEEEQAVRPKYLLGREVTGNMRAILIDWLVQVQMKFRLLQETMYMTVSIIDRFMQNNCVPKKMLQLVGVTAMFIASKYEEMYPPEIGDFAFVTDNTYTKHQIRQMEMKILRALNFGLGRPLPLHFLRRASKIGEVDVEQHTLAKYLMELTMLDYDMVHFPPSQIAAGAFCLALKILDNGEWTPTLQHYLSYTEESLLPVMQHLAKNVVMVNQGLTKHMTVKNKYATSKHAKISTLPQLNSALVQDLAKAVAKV
Chain of CDK4/cyclin D1 (P11802 whole entry): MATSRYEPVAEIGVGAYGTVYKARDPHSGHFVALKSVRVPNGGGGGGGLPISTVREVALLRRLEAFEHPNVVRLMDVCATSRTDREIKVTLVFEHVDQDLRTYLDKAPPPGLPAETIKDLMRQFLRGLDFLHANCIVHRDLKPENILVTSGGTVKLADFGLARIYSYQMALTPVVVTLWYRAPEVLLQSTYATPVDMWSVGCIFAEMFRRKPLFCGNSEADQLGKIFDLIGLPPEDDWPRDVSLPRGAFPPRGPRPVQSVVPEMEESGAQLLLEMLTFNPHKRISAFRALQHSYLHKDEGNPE
Chain of CDK4/cyclin D1 (P24385 whole entry partner): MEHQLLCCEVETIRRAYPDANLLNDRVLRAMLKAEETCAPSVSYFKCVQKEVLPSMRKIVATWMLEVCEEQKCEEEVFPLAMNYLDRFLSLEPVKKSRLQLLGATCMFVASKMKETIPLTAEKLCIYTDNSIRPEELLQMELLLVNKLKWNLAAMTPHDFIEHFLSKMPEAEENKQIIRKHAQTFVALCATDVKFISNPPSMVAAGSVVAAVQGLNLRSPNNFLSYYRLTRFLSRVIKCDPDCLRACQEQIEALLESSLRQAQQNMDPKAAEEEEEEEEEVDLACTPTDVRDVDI

In the case of `CN(C)C(=O)c1cc2cnc(Nc3ccc(C(=O)N4CCC(N(C)C)CC4)cn3)nc2n1C1CCCC1` [Example 50, 7-Cyclopentyl-2-[5-(4-dimethylamino-piperidine-1-carbonyl)-pyridin-2-ylamino]-7H-pyrrolo[2,3-d]pyrimidine-6-carboxylic acid dimethylamide], the IC50 in experiment [1] (setting [4]) was 0.01 to 0.1 µM; in experiment [2] (setting [5]), more than 15 µM; in experiment [3] (Table 2, read-out: CDK2) it was more than 15 µM.

For the compound `CNC(=O)c1cc2cnc(Nc3ccc(N4CCN(C(C)C)CC4)cn3)nc2n1C1CCCC1` [Example 51, 7-Cyclopentyl-2-[5-(4-isopropyl-piperazin-1-yl)-pyridin-2-ylamino]-7H-pyrrolo[2,3-d]pyrimidine-6-carboxylic acid methylamide], the IC50 was 0.01 to 0.1 µM in experiment [1] (setting [4]); more than 15 µM in experiment [2] (setting [5]); more than 15 µM in experiment [3] (Table 2, read-out: CDK2).

Regarding `CN(C)C(=O)c1cc2cnc(Nc3ccc(C4CCNCC4)cn3)nc2n1C1CCCC1` [Example 52, 7-Cyclopentyl-2-(1′,2′,3′,4′,5′,6-hexahydro-[3,4]bipyridinyl-6-ylamino)-7H-pyrrolo[2,3-d]pyrimidine-6-carboxylic acid dimethylamide], the IC50 is 0.01 to 0.1 µM in experiment [1] (setting [4]); more than 15 µM in experiment [2] (setting [5]); more than 15 µM in experiment [3] (Table 2, read-out: CDK2).

As to `CN(C)C(=O)c1cc2cnc(Nc3ccc(C(=O)N(C)C4CCNCC4)cn3)nc2n1C1CCCC1` [Example 53, 7-Cyclopentyl-2-[5-(methyl-piperidin-4-yl-carbamoyl)-pyridin-2-ylamino]-7H-pyrrolo[2,3-d]pyrimidine-6-carboxylic acid dimethylamide], the IC50 is 0.01 to 0.1 µM in experiment [1] (setting [4]); more than 15 µM in experiment [2] (setting [5]); more than 15 µM in experiment [3] (Table 2, read-out: CDK2).

On to `CC1CN(Cc2ccc(Nc3ncc4cc(C(=O)N(C)C)n(C5CCCC5)c4n3)nc2)CCN1` (stereo not drawn) [Example 54, 7-Cyclopentyl-2-[5-(3-methyl-piperazin-1-ylmethyl)-pyridin-2-ylamino]-7H-pyrrolo[2,3-d]pyrimidine-6-carboxylic acid dimethylamide], for which the IC50 was 0.01 to 0.1 µM in experiment [1] (setting [4]); more than 15 µM in experiment [2] (setting [5]); more than 15 µM in experiment [3] (Table 2, read-out: CDK2).

Regarding `C[C@H]1CN(Cc2ccc(Nc3ncc4cc(C(=O)N(C)C)n(C5CCCC5)c4n3)nc2)CCN1` [Example 55, 7-Cyclopentyl-2-[5-((S)-3-methyl-piperazin-1-ylmethyl)-pyridin-2-ylamino]-7H-pyrrolo[2,3-d]pyrimidine-6-carboxylic acid dimethylamide], the IC50 in experiment [1] (setting [4]) is 0.01 to 0.1 µM; in experiment [2] (setting [5]), more than 15 µM; in experiment [3] (Table 2, read-out: CDK2) it was more than 15 µM.

Take `C[C@H](O)CN1CCN(c2ccc(Nc3ncc4cc(C(=O)N(C)C)n(C5CCCC5)c4n3)nc2)CC1` [Example 56, 7-Cyclopentyl-2-{5-[4-((S)-2-hydroxy-propyl)-piperazin-1-yl]-pyridin-2-ylamino}-7H-pyrrolo[2,3-d]pyrimidine-6-carboxylic acid dimethylamide]: the IC50 in experiment [1] (setting [4]) is 0.01 to 0.1 µM; in experiment [2] (setting [5]) it was more than 15 µM; in experiment [3] (Table 2, read-out: CDK2), more than 15 µM.

For the compound `C[C@@H](O)CN1CCN(c2ccc(Nc3ncc4cc(C(=O)N(C)C)n(C5CCCC5)c4n3)nc2)CC1` [Example 57, 7-Cyclopentyl-2-{5-[4-((R)-2-hydroxy-propyl)-piperazin-1-yl]-pyridin-2-ylamino}-7H-pyrrolo[2,3-d]pyrimidine-6-carboxylic acid dimethylamide], the IC50 in experiment [1] (setting [4]) was 0.01 to 0.1 µM; in experiment [2] (setting [5]), more than 15 µM; in experiment [3] (Table 2, read-out: CDK2), more than 15 µM.

Regarding `CNC(=O)c1cc2cnc(Nc3ccc(N4CCNCC4)cn3)nc2n1C1CCCC1` [Example 58, 7-Cyclopentyl-2-(5-piperazin-1-yl-pyridin-2-ylamino)-7H-pyrrolo[2,3-d]pyrimidine-6-carboxylic acid methylamide], the IC50 was 0.01 to 0.1 µM in experiment [1] (setting [4]); more than 15 µM in experiment [2] (setting [5]); more than 15 µM in experiment [3] (Table 2, read-out: CDK2).

`CN(C)C(=O)c1cc2cnc(Nc3ccc(N(C)CCN)cn3)nc2n1C1CCCC1` [Example 59, 2-{5-[(2-Amino-ethyl)-methyl-amino]-pyridin-2-ylamino}-7-cyclopentyl-7H-pyrrolo[2,3-d]pyrimidine-6-carboxylic acid dimethylamide]: the IC50 is 0.01 to 0.1 µM in experiment [1] (setting [4]); more than 15 µM in experiment [2] (setting [5]); more than 15 µM in experiment [3] (Table 2, read-out: CDK2).

In the case of `CN(C)C(=O)c1cc2cnc(Nc3ccc(CN4CCN(C)C(=O)C4)cn3)nc2n1C1CCCC1` [Example 60, 7-Cyclopentyl-2-[5-(4-methyl-3-oxo-piperazin-1-ylmethyl)-pyridin-2-ylamino]-7H-pyrrolo[2,3-d]pyrimidine-6-carboxylic acid dimethylamide], the IC50 is 0.1 to 1 µM in experiment [1] (setting [4]); more than 15 µM in experiment [2] (setting [5]); more than 15 µM in experiment [3] (Table 2, read-out: CDK2).

`CC(=O)N1CCN(Cc2ccc(Nc3ncc4cc(C(=O)N(C)C)n(C5CCCC5)c4n3)nc2)CC1` [Example 61, 2-[5-(4-Acetyl-piperazin-1-ylmethyl)-pyridin-2-ylamino]-7-cyclopentyl-7H-pyrrolo[2,3-d]pyrimidine-6-carboxylic acid dimethylamide]: the IC50 in experiment [1] (setting [4]) is 0.1 to 1 µM; in experiment [2] (setting [5]), more than 15 µM; in experiment [3] (Table 2, read-out: CDK2) it was more than 15 µM.

For the compound `CC(C)N1CCN(Cc2ccc(Nc3ncc4cc(C(=O)N(C)C)n(C5CCCC5)c4n3)nc2)CC1` [Example 62, 7-Cyclopentyl-2-[5-(4-isopropyl-piperazin-1-ylmethyl)-pyridin-2-ylamino]-7H-pyrrolo[2,3-d]pyrimidine-6-carboxylic acid dimethylamide], the IC50 is 0.01 to 0.1 µM in experiment [1] (setting [4]); more than 15 µM in experiment [2] (setting [5]); more than 15 µM in experiment [3] (Table 2, read-out: CDK2).

For the compound `CC(C)N1CCN(c2ccc(Nc3ncc4cc(C(=O)N(C)C)n(C5CCCC5)c4n3)nc2)CC1` [Example 63, 7-Cyclopentyl-2-[5-(4-isopropyl-piperazin-1-yl)-pyridin-2-ylamino]-7H-pyrrolo[2,3-d]pyrimidine-6-carboxylic acid dimethylamide], the IC50 in experiment [1] (setting [4]) was 0.001 to 0.01 µM; in experiment [1] (Table 4, read-out: IC50 (μM) CDK4), 0.008 µM; in experiment [2] (setting [5]), more than 15 µM; in experiment [2] (Table 4, read-out: IC50 (μM) CDK1), more than 15 µM; in experiment [3] (Table 2, read-out: CDK2) it was more than 15 µM; in experiment [3] (Table 4, read-out: IC50 (μM) CDK2) it was more than 15 µM.

Regarding `CN(C)C(=O)c1cc2cnc(Nc3ccc(CN4CCN(C(=O)CN)CC4)cn3)nc2n1C1CCCC1` [Example 65, 2-{5-[4-(2-Amino-acetyl)-piperazin-1-ylmethyl]-pyridin-2-ylamino}-7-cyclopentyl-7H-pyrrolo[2,3-d]pyrimidine-6-carboxylic acid dimethylamide], the IC50 is 0.01 to 0.1 µM in experiment [1] (setting [4]); more than 15 µM in experiment [2] (setting [5]); more than 15 µM in experiment [3] (Table 2, read-out: CDK2).

On to `C[C@H](CO)NCc1ccc(Nc2ncc3cc(C(=O)N(C)C)n(C4CCCC4)c3n2)nc1` [Example 66, 7-Cyclopentyl-2-{5-[((R)-2-hydroxy-1-methyl-ethylamino)-methyl]-pyridin-2 lamino}-7H-pyrrolo[2,3-d]pyrimidine-6-carboxylic acid dimethylamide], for which the IC50 in experiment [1] (setting [4]) is 0.01 to 0.1 µM; in experiment [2] (setting [5]), more than 15 µM; in experiment [3] (Table 2, read-out: CDK2), more than 15 µM.

On to `CN(C)C(=O)c1cc2cnc(Nc3ccc(N4CCNCC4)nn3)nc2n1C1CCCC1` [Example 67, 7-Cyclopentyl-2-(6-piperazin-1-yl-pyridazin-3-ylamino)-7H-pyrrolo[2,3-d]pyrimidine-6-carboxylic acid dimethylamide], for which the IC50 in experiment [1] (setting [4]) was 0.01 to 0.1 µM; in experiment [2] (setting [5]), more than 15 µM; in experiment [3] (Table 2, read-out: CDK2), more than 15 µM.

For the compound `CC(C)CCCN1CCN(c2ccc(Nc3ncc4cc(C(=O)N(C)C)n(C5CCCC5)c4n3)nc2)CC1` [Example 68, 7-Cyclopentyl-2-{5-[4-(4-methyl-pentyl)-piperazin-1-yl]-pyridin-2-ylamino}-7H-pyrrolo[2,3-d]pyrimidine-6-carboxylic acid dimethylamide], the IC50 in experiment [1] (setting [4]) is 0.001 to 0.01 µM; in experiment [2] (setting [5]), more than 15 µM; in experiment [3] (Table 2, read-out: CDK2) it was more than 15 µM.

Take `CN(C)C(=O)c1cc2cnc(Nc3ccc(N4CCN(CC5CCCCC5)CC4)cn3)nc2n1C1CCCC1` [Example 69, 2-[5-(4-Cyclohexylmethyl-piperazin-1-yl)-pyridin-2-ylamino]-7-cyclopentyl-7H-pyrrolo[2,3-d]pyrimidine-6-carboxylic acid dimethylamide]: the IC50 in experiment [1] (setting [4]) is 0.01 to 0.1 µM; in experiment [2] (setting [5]), more than 15 µM; in experiment [3] (Table 2, read-out: CDK2), more than 15 µM.

As to `CC(C)N1CCN(c2ccc(Nc3ncc4cc(C(=O)N(C)C)n(C5CCCC5)c4n3)nn2)CC1` [Example 70, 7-Cyclopentyl-2-[6-(4-isopropyl-piperazin-1-yl)-pyridazin-3-ylamino]-7H-pyrrolo[2,3-d]pyrimidine-6-carboxylic acid dimethylamide], the IC50 is 0.01 to 0.1 µM in experiment [1] (setting [4]); more than 15 µM in experiment [2] (setting [5]); more than 15 µM in experiment [3] (Table 2, read-out: CDK2).

On to `CN(C)C(=O)c1cc2cnc(Nc3ccc(N4CCN(CC(C)(C)O)CC4)cn3)nc2n1C1CCCC1` [Example 71, 7-Cyclopentyl-2-{5-[4-(2-hydroxy-2-methyl-propyl)-piperazin-1-yl]-pyridin-2-ylamino}-7H-pyrrolo[2,3-d]pyrimidine-6-carboxylic acid dimethylamide], for which the IC50 in experiment [1] (setting [4]) was 0.01 to 0.1 µM; in experiment [2] (setting [5]), more than 15 µM; in experiment [3] (Table 2, read-out: CDK2), more than 15 µM.

Turning to `CN(C)C(=O)c1cc2cnc(Nc3ccc(N4CCNC(C)(C)C4)cn3)nc2n1C1CCCC1` [Example 72, 7-Cyclopentyl-2-[5-(3,3-dimethyl-piperazin-1-yl)-pyridin-2-ylamino]-7H-pyrrolo[2,3-d]pyrimidine-6-carboxylic acid dimethylamide], the IC50 in experiment [1] (setting [4]) is 0.01 to 0.1 µM; in experiment [2] (setting [5]) it was more than 15 µM; in experiment [3] (Table 2, read-out: CDK2) it was more than 15 µM.
